Measurements published in patent US4795826A, “Ortho-phenylenediamine compounds” (priority 1986, dated 1989).
Entries after “also recorded” stand apart in the source; their conditions may differ.

Columns and labels:
P388 leukemia = P388 leukemia in vivo (increase in lifespan of mice, i.p. tumour); details: for active (P388): P388, at the stated dose
[1] = Potency and antitumour activity in in vivo test systems (general statements)
Lewis lung carcinoma = Lewis lung carcinoma in vivo (increase in lifespan of mice, i.v. tumour); details: for ILS (percentage increase in lifespan): values without asterisk, controls 17 days; for active (Lewis lung): at the stated dose
mouse L1210 leukemia = mouse L1210 leukemia model; Atwell, Cain and Seelye 1972; cited from earlier work
Aerobacter aerogenes = test: Antibacterial activity
Alcaligenes viscolactis = test: Antibacterial activity
Escherichia coli = test: Antibacterial activity
Bacillus subtilis = test: Antibacterial activity
Sarcina lutea = test: Antibacterial activity
[2] = tested on: Micrococcus lysodeikticus; test: Antibacterial activity
Neisseria catarrhalis = test: Antibacterial activity
Staphylococcus aureus = test: Antibacterial activity
Xanthomonas phaseoli = test: Antibacterial activity
Streptococcus faecalis = test: Antibacterial activity
[3] = 3'-substituted AMSA analogues; earlier publications; cited from earlier work
[4] = Lewis lung, at OD on days 1, 5, 9, >40% statistically significant

For `CNc1cc(NS(C)(=O)=O)ccc1Nc1c2ccccc2nc2ccccc12` [Compound 1], the “active (P388)” value (P388 leukemia) was “Y”, the “potency and antitumour activity (in words)” value [1] was “increased potency and antitumour activity compared to the unsubstituted AMSA and the 3'-methoxy derivative m-AMSA (amsacrine)” and the “ILS (percentage increase in lifespan)” value (Lewis lung carcinoma; [4]) was 85%. For the same compound, the “active (Lewis lung)” value (Lewis lung carcinoma; Lewis lung) was “Y”.
For `CS(=O)(=O)Nc1ccc(Nc2c3ccccc3nc3ccccc23)cc1` [AMSA, 4'-(9-acridinylamino) methanesulphonanilide], the antitumour activity (mouse L1210 leukemia) is listed as “good antitumour activity”.
In the case of `CNc1cc(NS(C)(=O)=O)ccc1Nc1c2ccccc2nc2c(C)cccc12` [Compound 12], the “ILSmax (percentage increase in lifespan), marked *” value (P388 leukemia; P388, at OD on days 1, 5, 9, […], >20% statistically significant) is reported as 157%, the “active (P388)” value (P388 leukemia) is reported as “Y” and the antibacterial activity (Aerobacter aerogenes) is reported as “active”. The antibacterial activity (Alcaligenes viscolactis) was “active”, the antibacterial activity (Escherichia coli) was “active” and the antibacterial activity (Bacillus subtilis) was “active”. The antibacterial activity (Sarcina lutea) was “active”, the antibacterial activity [2] was “active” and the antibacterial activity (Neisseria catarrhalis) was “active”. The antibacterial activity (Staphylococcus aureus) was “active”, the antibacterial activity (Xanthomonas phaseoli) was “active” and the antibacterial activity (Streptococcus faecalis) was “active”. For the same compound, the “ILS (percentage increase in lifespan), marked *” value (Lewis lung carcinoma; Lewis lung, at OD on days 1, 5, 9, […], >40% statistically significant) was 159% and the “active (Lewis lung)” value (Lewis lung carcinoma; Lewis lung) was “Y”.
In the case of `COc1cc(NS(C)(=O)=O)ccc1Nc1c2ccccc2nc2ccccc12` [m-AMSA, 4'-(9-acridinylamino)methanesulphon-m-anisidide, reference compound], the “ILSmax (percentage increase in lifespan)” value (P388 leukemia; P388, at OD on days 1, 5, 9, values without asterisk, >20% statistically significant, controls 11 days) is listed as 78%, the “active (P388)” value (P388 leukemia) is listed as “Y” and the “antitumour activity / dose potency (in words)” value [3] is listed as “increased dose potency”. The “ILS (percentage increase in lifespan)” value (Lewis lung carcinoma; [4]) was 38%, the “active (Lewis lung)” value (Lewis lung carcinoma; Lewis lung) was “Y/N” and the “Lewis lung activity (in words)” value (Lewis lung carcinoma; tumour implanted intravenously, ILS of 40% required for statistical significance) was “minimal activity; also recorded: strictly inactive”.
